Experimental data reported in patent publication US12396458B2, “Fused ring substituted aromatic compound and preparation method therefor, herbicidal composition, and use thereof” (Qingdao Kingagroot Chemical Compound Co., Ltd., priority 2020, dated 2025).

Assays:
Test in all cases: Weeding effect in post-emergence stage (greenhouse pot test)
Format in all cases: in vivo
Conyza japonica = details: fresh weight control rate
Outline: (§1)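 Greenhouse pot plants sprayed at 2-3 leaf stage (2 weeks after sowing) with compound in acetone/Tween 80 plus 1.5 L/ha methyl oleate EC, at 500, 250, 125, 60, 15, 7.5 g a.i./ha. Fresh-weight growth control scored 3 weeks later on a 0-5 scale (level 5 >85%, level 0 <5%); three replicates averaged.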

Digitaria sanguinalis = details: dose 7.5 g a.i./ha, fresh weight control rate
Outline: as §1

Rorippa indica = details: dose 7.5 g a.i./ha, fresh weight control rate
Outline: as §1

Eleusine indica = details: dose 7.5 g a.i./ha, fresh weight control rate
Outline: as §1

Setaria viridis = details: dose 7.5 g a.i./ha, fresh weight control rate
Outline: as §1

Beckmannia syzigachne = details: 3 weeks after application, fresh weight control rate
Outline: as §1

Alopecurus japonicus = details: 3 weeks after application, fresh weight control rate
Outline: as §1

Capsella bursa-pastoris = details: 3 weeks after application, fresh weight control rate
Outline: as §1

[1] = post-emergence control test, dose 7.5 g a.i./ha
[2] = post-emergence, dose 15 g a.i./ha, 3 weeks after application

SMILES	Activity level (growth control rate), Conyza japonica (Conyza japonica; [1])	Activity level (growth control rate), Digitaria sanguinalis (Digitaria sanguinalis)	Activity level (growth control rate), Rorippa indica (Rorippa indica)	Activity level (growth control rate), Eleusine indica (Eleusine indica)	Activity level (growth control rate), Setaria viridis (Setaria viridis)	Activity level (growth control rate), Conyza japonica (Conyza japonica; [2])	Activity level (growth control rate), Beckmannia syzigachne (Beckmannia syzigachne; dose 15 g a.i./ha)	Activity level (growth control rate), Alopecurus japonicus (Alopecurus japonicus; dose 15 g a.i./ha)	Activity level (growth control rate), Capsella bursa-pastoris (Capsella bursa-pastoris; dose 15 g a.i./ha)	Activity level (growth control rate), Conyza japonica (Conyza japonica; post-emergence, dose 125 g a.i./ha, 3 weeks after application)	Activity level (growth control rate), Beckmannia syzigachne (Beckmannia syzigachne; dose 125 g a.i./ha)	Activity level (growth control rate), Alopecurus japonicus (Alopecurus japonicus; dose 125 g a.i./ha)	Activity level (growth control rate), Capsella bursa-pastoris (Capsella bursa-pastoris; dose 125 g a.i./ha)
CCOC(=O)C1(C)CC(c2cc(-n3c(=O)n(C)c(=S)n(C)c3=O)c(F)cc2Cl)=NO1 (stereo not drawn) [Control compound A, reference compound]	2 (Level 2: growth control rate is greater than or equal to 20% and less than 40%)	2 (Level 2: growth control rate is greater than or equal to 20% and less than 40%)	2 (Level 2: growth control rate is greater than or equal to 20% and less than 40%)	3 (Level 3: growth control rate is greater than or equal to 40% and less than 60%)	2 (Level 2: growth control rate is greater than or equal to 20% and less than 40%)	–	–	–	–	–	–	–	–
COC(=O)C12CCCC1C(c1cc(-n3c(=O)cc(C(F)(F)F)n(C)c3=O)c(F)cc1Cl)=NO2 (stereo not drawn) [Compound 209]	4 (Level 4: growth control rate is greater than or equal to 60% and less than 85%)	5 (Level 5: growth control rate is above 85%)	5 (Level 5: growth control rate is above 85%)	5 (Level 5: growth control rate is above 85%)	5 (Level 5: growth control rate is above 85%)	5 (Level 5: growth control rate is above 85%)	5 (Level 5: growth control rate is above 85%)	5 (Level 5: growth control rate is above 85%)	5 (Level 5: growth control rate is above 85%)	–	–	–	–
CCOC(=O)C12CCCC1C(c1cc(-n3c(=O)n(C)c(=S)n(C)c3=O)c(F)cc1Cl)=NO2 (stereo not drawn) [Compound 3]	3 (Level 3: growth control rate is greater than or equal to 40% and less than 60%)	4 (Level 4: growth control rate is greater than or equal to 60% and less than 85%)	5 (Level 5: growth control rate is above 85%)	4 (Level 4: growth control rate is greater than or equal to 60% and less than 85%)	4 (Level 4: growth control rate is greater than or equal to 60% and less than 85%)	4 (Level 4: growth control rate is greater than or equal to 60% and less than 85%)	5 (Level 5: growth control rate is above 85%)	5 (Level 5: growth control rate is above 85%)	5 (Level 5: growth control rate is above 85%)	–	–	–	–
CCOC(=O)C1(C)CC(c2cc(-n3c(=O)cc(C(F)(F)F)n(C)c3=O)c(F)cc2Cl)=NO1 (stereo not drawn) [Control compound B, reference compound]	2 (Level 2: growth control rate is greater than or equal to 20% and less than 40%)	2 (Level 2: growth control rate is greater than or equal to 20% and less than 40%)	2 (Level 2: growth control rate is greater than or equal to 20% and less than 40%)	3 (Level 3: growth control rate is greater than or equal to 40% and less than 60%)	3 (Level 3: growth control rate is greater than or equal to 40% and less than 60%)	–	–	–	–	–	–	–	–
Cn1c(C(F)(F)F)cc(=O)n(-c2cc(C3=NOC4(C(=O)OCCCl)CCCC34)c(Cl)cc2F)c1=O (stereo not drawn) [Compound 424]	–	–	–	–	–	5 (Level 5: growth control rate is above 85%)	5 (Level 5: growth control rate is above 85%)	5 (Level 5: growth control rate is above 85%)	5 (Level 5: growth control rate is above 85%)	–	–	–	–
CCOC(=O)CCC12CCCC1C(c1cc(-n3c(=O)cc(C(F)(F)F)n(C)c3=O)c(F)cc1Cl)=NO2 (stereo not drawn) [Compound 533]	–	–	–	–	–	–	–	–	–	5 (Level 5: growth control rate is above 85%)	5 (Level 5: growth control rate is above 85%)	5 (Level 5: growth control rate is above 85%)	5 (Level 5: growth control rate is above 85%)
COC(=O)C12CCCC1C(c1cc(-n3c(=O)cc(C(F)(F)F)n(C)c3=O)c(F)cc1Cl)=NO2 (stereo not drawn) [Compound 214]	–	–	–	–	–	5 (Level 5: growth control rate is above 85%)	5 (Level 5: growth control rate is above 85%)	5 (Level 5: growth control rate is above 85%)	5 (Level 5: growth control rate is above 85%)	–	–	–	–
CC(C)=NOC(=O)C12CCCC1C(c1cc(-n3c(=O)n(C)c(=S)n(C)c3=O)c(F)cc1Cl)=NO2 (stereo not drawn) [Compound 66]	–	–	–	–	–	4 (Level 4: growth control rate is greater than or equal to 60% and less than 85%)	4 (Level 4: growth control rate is greater than or equal to 60% and less than 85%)	5 (Level 5: growth control rate is above 85%)	5 (Level 5: growth control rate is above 85%)	–	–	–	–
COC(=O)C12CCCC1C(c1cc(-n3c(=O)n(C)c(=S)n(C)c3=O)c(F)cc1Cl)=NO2 (stereo not drawn) [Compound 2]	–	–	–	–	–	5 (Level 5: growth control rate is above 85%)	5 (Level 5: growth control rate is above 85%)	5 (Level 5: growth control rate is above 85%)	5 (Level 5: growth control rate is above 85%)	–	–	–	–
